Test results as given in US20230017045A1, “PYRIDINE AND PYRIMIDINE CARBOXYLATE HERBICIDES AND METHODS OF USE THEREOF” (Dow AgroSciences LLC, priority 2017, published 2023).
Like-named read-outs stand apart in the source and are kept apart here.

System: test plant species
Test: Post-emergent herbicidal activity test (greenhouse, foliar spray, visual growth reduction)
Type: in vivo
Settings: post-emergence, 336 h, 140 g ai/ha
Summary of the method: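 Greenhouse plants at first–second true leaf stage sprayed overhead at 187 L/ha with compound in acetone/water/isopropanol/DMSO/crop oil/X-77 carrier; controls received solvent blank. Injury rated visually after 14 d on a 0–100% scale versus untreated and control plants, converted to growth reduction.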

[1] = ECHCG: barnyardgrass (Echinochloa crus-galli), 14 days after application, read-out: Visual Growth Reduction (%) 14 Days After Application, ECHCG
[2] = IPOHE: ivy-leaf morning glory (Ipomoea hederacea), 14 days after application, read-out: Visual Growth Reduction (%) 14 Days After Application, IPOHE
[3] = KCHSC: kochia (Bassia scoparia), 14 days after application, read-out: Visual Growth Reduction (%) 14 Days After Application, KCHSC
[4] = ORYSA: rice (Oryza sativa), 14 days after application, read-out: Visual Growth Reduction (%) 14 Days After Application, ORYSA
[5] = SETFA: giant foxtail (Setaria faberi), 14 days after application, read-out: Visual Growth Reduction (%) 14 Days After Application, SETFA
[6] = SORVU: grain sorghum (Sorghum vulgare), 14 days after application, read-out: Visual Growth Reduction (%) 14 Days After Application, SORVU
[7] = STEME: common chickweed (Stellaria media), 14 days after application, read-out: Visual Growth Reduction (%) 14 Days After Application, STEME
[8] = TRZAS: wheat, spring (Triticum aestivum), 14 days after application, read-out: Visual Growth Reduction (%) 14 Days After Application, TRZAS
[9] = blackgrass (Alopecurus myosuroides), 14 Days After Application, read-out: Visual Growth Reduction (%) ALOMY
[10] = canada thistle (Cirsium arvense), 14 Days After Application, read-out: Visual Growth Reduction (%) CIRAR
[11] = crabgrass (Digitaria sanguinalis), 14 Days After Application, read-out: Visual Growth Reduction (%) DIGSA
[12] = lambsquarters (Chenopodium album), 14 Days After Application, read-out: Visual Growth Reduction (%) CHEAL
[13] = redroot pigweed (Amaranthus retroflexus), 14 Days After Application, read-out: Visual Growth Reduction (%) AMARE
[14] = wild oat (Avena fatua), 14 Days After Application, read-out: Visual Growth Reduction (%) AVEFA
[15] = yellow nutsedge (Cyperus esculentus), 14 Days After Application, read-out: Visual Growth Reduction (%) CYPES
[16] = ALOMY: blackgrass (Alopecurus myosuroides), 14 days after application, read-out: Visual Growth Reduction (%) 14 Days After Application, ALOMY
[17] = AMARE: redroot pigweed (Amaranthus retroflexus), 14 days after application, read-out: Visual Growth Reduction (%) 14 Days After Application, AMARE
[18] = AVEFA: wild oat (Avena fatua), 14 days after application, read-out: Visual Growth Reduction (%) 14 Days After Application, AVEFA
[19] = CHEAL: lambsquarters (Chenopodium album), 14 days after application, read-out: Visual Growth Reduction (%) 14 Days After Application, CHEAL
[20] = CIRAR: canada thistle (Cirsium arvense), 14 days after application, read-out: Visual Growth Reduction (%) 14 Days After Application, CIRAR
[21] = CYPES: yellow nutsedge (Cyperus esculentus), 14 days after application, read-out: Visual Growth Reduction (%) 14 Days After Application, CYPES
[22] = DIGSA: crabgrass (Digitaria sanguinalis), 14 days after application, read-out: Visual Growth Reduction (%) 14 Days After Application, DIGSA

Structure (SMILES)	pest or weed control at 140 g/ha [1]	pest or weed control at 140 g/ha [2]	pest or weed control at 140 g/ha [3]	pest or weed control at 140 g/ha [4]	pest or weed control at 140 g/ha [5]	pest or weed control at 140 g/ha [6]	pest or weed control at 140 g/ha [7]	pest or weed control at 140 g/ha [8]	pest or weed control at 140 g/ha [9]	pest or weed control at 140 g/ha [10]	pest or weed control at 140 g/ha [11]	pest or weed control at 140 g/ha [12]	pest or weed control at 140 g/ha [13]	pest or weed control at 140 g/ha [14]	pest or weed control at 140 g/ha [15]	pest or weed control at 140 g/ha [16]	pest or weed control at 140 g/ha [17]	pest or weed control at 140 g/ha [18]	pest or weed control at 140 g/ha [19]	pest or weed control at 140 g/ha [20]	further results
COc1c(Cl)ccc(-c2ccc(Cl)c(C(=O)OCc3ccccc3)n2)c1F [F299, Benzyl 3-chloro-6-(4-chloro-2-fluoro-3-methoxyphenyl) picolinate]	0 to 29%	60 to 74%	75 to 84%	0 to 29%	0 to 29%	0 to 29%	60 to 74%	0 to 29%	0 to 29%	75 to 84%	0 to 29%	75 to 84%	60 to 74%	0 to 29%	75 to 84%						
COC(=O)c1nc(-c2cc(F)c(Cl)c(OC)c2)ccc1Cl [F278, Methyl 3-chloro-6-(4-chloro-3-fluoro-5-methoxyphenyl) picolinate]	0 to 29%	0 to 29%	0 to 29%	0 to 29%	0 to 29%	0 to 29%	0 to 29%	0 to 29%	0 to 29%	0 to 29%	0 to 29%	0 to 29%	0 to 29%	0 to 29%	0 to 29%						
COC(=O)c1nc(-c2ccc(C(F)(F)F)c(S(C)(=O)=O)c2Cl)ccc1Cl [F139, methyl 3-chloro-6-(2-chloro-3-(methylsulfonyl)-4-(trifluoromethyl)phenyl)picolinate]	0 to 29%	0 to 29%	0 to 29%	0 to 29%	0 to 29%	0 to 29%	0 to 29%	0 to 29%								0 to 29%	0 to 29%	0 to 29%	0 to 29%	0 to 29%	pest or weed control at 140 g/ha [21]: 30 to 44%; pest or weed control at 140 g/ha [22]: 0 to 29%
COC(=O)c1nc(-c2ccc3c(c2)OC(F)(F)O3)ccc1Cl [F64, Methyl 3-chloro-6-(2,2-difluorobenzo[d] [1,3]dioxol-5-yl) picolinate]	0 to 29%	95 to 100%	0 to 29%	0 to 29%	0 to 29%	60 to 74%	0 to 29%	0 to 29%								0 to 29%	45 to 59%	0 to 29%	60 to 74%	0 to 29%	pest or weed control at 140 g/ha [21]: 60 to 74%; pest or weed control at 140 g/ha [22]: 85 to 94%
COC(=O)c1nc(-c2ccc(C(F)F)cc2)ncc1Cl [F319, Methyl 5-chloro-2-(4-(difluoromethyl)phenyl)pyrimidine-4-carboxylate]	0 to 29%	30 to 44%	0 to 29%	0 to 29%	0 to 29%	0 to 29%	0 to 29%	0 to 29%	0 to 29%	0 to 29%	0 to 29%	30 to 44%	0 to 29%	0 to 29%	0 to 29%						
COC(=O)c1nc(-c2ccc(C(F)(F)F)cc2Cl)ccc1[N+](=O)[O-] [F201, Methyl 6-(2-chloro-4-(trifluoromethyl)phenyl)-3-nitropicolinate]	0 to 29%	0 to 29%	0 to 29%	0 to 29%	0 to 29%	0 to 29%	0 to 29%	0 to 29%	0 to 29%	0 to 29%	0 to 29%	0 to 29%	45 to 59%	0 to 29%	0 to 29%						
COC(=O)c1nc(-c2ccc(C3CC3(F)F)cc2Cl)ccc1Cl (stereo not drawn) [F13, methyl 3-chloro-6-(2-chloro-4-(2,2 difluorocyclopropyl)phenyl) picolinate]																0 to 29%	75 to 84%	0 to 29%	85 to 94%	85 to 94%	pest or weed control at 140 g/ha [21]: 0 to 29%; pest or weed control at 140 g/ha [22]: 0 to 29%; pest or weed control at 140 g/ha (barnyardgrass (Echinochloa crus-galli), 14 Days After Application, read-out: Visual Growth Reduction (%) ECHCG): 0 to 29%; pest or weed control at 140 g/ha (common chickweed (Stellaria media), 14 Days After Application, read-out: Visual Growth Reduction (%) STEME): 0 to 29%; pest or weed control at 140 g/ha (giant foxtail (Setaria faberi), 14 Days After Application, read-out: Visual Growth Reduction (%) SETFA): 0 to 29%; pest or weed control at 140 g/ha (ivy-leaf morning glory (Ipomoea hederacea), 14 Days After Application, read-out: Visual Growth Reduction (%) IPOHE): 95 to 100%; pest or weed control at 140 g/ha (johnsongrass (Sorghum vulgare), 14 Days After Application, read-out: Visual Growth Reduction (%) SORVU): 60 to 74%; pest or weed control at 140 g/ha (kochia (Bassia scoparia), 14 Days After Application, read-out: Visual Growth Reduction (%) KCHSC): 60 to 74%; pest or weed control at 140 g/ha (rice (Oryza sativa), 14 Days After Application, read-out: Visual Growth Reduction (%) ORYSA): 0 to 29%; pest or weed control at 140 g/ha (wheat, spring (Triticum aestivum), 14 Days After Application, read-out: Visual Growth Reduction (%) TRZAS): 0 to 29%
O=C(O)c1nc(-c2cc(F)c3c(c2)OC(F)(F)O3)ccc1Cl [F368, 3-Chloro-6-(2,2,7-trifluorobenzo[d][1,3]dioxol-5-yl)picolinic acid]	0 to 29%	95 to 100%	0 to 29%	0 to 29%	45 to 59%	75 to 84%	0 to 29%	0 to 29%	0 to 29%	0 to 29%	75 to 84%	0 to 29%	0 to 29%	0 to 29%	0 to 29%						
